Data set [1] has as its system human neuroblastoma cell lines SH-SY5Y. Put plainly: Improvement of mitochondrial dysfunction in MPP+-treated SH-SY5Y cells (Alamar Blue mitochondrial oxidation reduction activity). The class given is cell-based. To be noted: SH-SY5Y cells in 1.5 mM MPP+ medium, relative to cells in DMSO alone = 100%, read-out: Fluorescence Intensity (%); for activity at 0.01 µg/mL: test compound 0.01 μg/ml; for activity at 0.03 µg/mL: test compound 0.03 μg/ml; for activity at 0.1 µg/mL: test compound 0.1 μg/ml; for activity at 0.3 µg/mL: test compound 0.3 μg/ml; for activity at 1 µg/mL: test compound 1 μg/ml. The procedure:
Evaluation of Improvement of Mitochondrial Dysfunction using Human Neuroblastoma Cell Lines SH-SY5Y Treated with 1-methyl-4-phenylpyridinium (MPP^+)
In human neuroblastoma cell lines SH-SY5Y in which mitochondrial activity was injured by MPP^+ treatment (Bollimuntha S. et al., J Biol Chem, 280, 2132-2140 (2005) and Shang T. et al., J Biol Chem, 280, 34644-34653 (2005)), improvement of the mitochondrial dysfunction was evaluated on the basis of the measurement value of the mitochondrial oxidation reduction activity using Alamar Blue fluorescent dye after the compound addition (Nakai M. et. al, Exp Neurol, 179, 103-110 (2003)).
The human neuroblastoma cell lines SH-SY5Y were cultured in Dulbecco's Modified Eagle's Medium containing 10% fetal bovine serum (DMEM containing 50 units/ml penicillin and 50 μg/ml streptomycin as antibiotics) at 37° C. in the presence of 5% carbon dioxide. Cells were scattered on a poly-D-lysine-coated 96-well black plate at a concentration of 3-6×10^4 cells/cm^2 (medium amount: 100 μl/well), and cultured in the above medium for two days. Further, the medium was changed to a DMEM containing a 1% N2 supplement (N2-DMEM) or to a medium (100 μl/well) in which 1.5 mM MPP^+ was dissolved. The cells were cultured therein for 39 to 48 hours, and then subjected to a mitochondrial oxidation reduction activity measurement system. A sample compound that had been previously dissolved in dimethyl sulfoxide (DMSO) was diluted with N2-DMEM, and added in a volume of 10 μl/well 24 hours before the activity measurement (final compound concentration: 0.01 to 1 μg/ml).
After removal of the medium by suction, a balanced salt solution containing 10% Alamar Blue (154 mM sodium chloride, 5.6 mM potassium chloride, 2.3 mM calcium chloride, 1.0 mM magnesium chloride, 3.6 mM sodium bicarbonate, 5 mM glucose, 5 mM HEPES, pH 7.2) was added in a volume of 100 μl/well, and reacted in an incubator at 37° C. for 1 hour. The fluorescent intensity was detected using a fluorescence detector (a product of Hamamatsu Photonics K.K., excitation wavelength 530 nm, measurement wavelength 580 nm) to thereby measure the mitochondrial oxidation reduction activity.
The fluorescent intensity of the well of the cells cultured in a medium containing MPP^+ and in each of the sample compounds was relatively evaluated based on a 100% fluorescent intensity of the well of the cells cultured in a medium containing DMSO alone (final concentration: 0.1%).

On to `COc1ccc(-c2c[nH]c3c(-c4ccco4)ccc(F)c3c2=O)cc1` [Example 86, 5-Fluoro-8-furan-2-yl-3-(4-methoxyphenyl)-1H-quinolin-4-one], for which the melting point – broadly, the temperature, or range, at which the solid turns liquid – was 209 to 211 °C. In data set [1], the activity at 0.01 µg/mL stood at 52%, the activity at 0.03 µg/mL worked out at 59%, the activity at 0.1 µg/mL was 68% and the activity at 0.3 µg/mL amounted to 61%. Besides, the activity at 1 µg/mL in data set [1] worked out at 39%.
`CCCOc1ccc(F)c2c(=O)c(-c3ccc(OC)nc3)c[nH]c12` [Example 63, 5-Fluoro-3-(6-methoxypyridin-3-yl)-8-propoxy-1H-quinolin-4-one] came in with a melting point of 215 to 216 °C. In data set [1], the activity at 0.01 µg/mL was 58%, the activity at 0.03 µg/mL turned out to be 65%, the activity at 0.1 µg/mL was found to be 74% and the activity at 0.3 µg/mL amounted to 75%. In data set [1], the activity at 1 µg/mL stood at 85%.
`COCCN(C)c1ccc(F)c2c(=O)c(-c3ccc(OC)cc3)c[nH]c12.Cl` [Example 34, 5-Fluoro-8-[N-(2-methoxyethyl)-N-methylamino]-3-(4-methoxyphenyl)-1H-quinolin-4-one hydrochloride] gave a melting point of 100 to 101 °C. Further, in data set [1], the activity at 0.01 µg/mL was 69%, the activity at 0.03 µg/mL worked out at 74%, the activity at 0.1 µg/mL was found to be 77% and the activity at 0.3 µg/mL was 78%. In addition, the activity at 1 µg/mL in data set [1] was determined as 87%.
Turning to `CCCOc1ccc(F)c2c(=O)c(-c3ccc(CC)cc3)c(C)[nH]c12` [Example 71, 3-(4-Ethylphenyl)-5-fluoro-2-methyl-8-propoxy-1H-quinolin-4-one], the melting point lay within 221 to 222 °C. In data set [1], the activity at 0.01 µg/mL turned out to be 56%, the activity at 0.03 µg/mL came to 61%, the activity at 0.1 µg/mL came out at 73% and the activity at 0.3 µg/mL came out at 78%. Besides, in data set [1], the activity at 1 µg/mL is 72%.
The compound `CCCOc1ccc(F)c2c(=O)c(-c3ccc(OCC4CC4)cc3)c[nH]c12` [Example 35, 3-(4-Cyclopropylmethoxyphenyl)-5-fluoro-8-propoxy-1H-quinolin-4-one] had a melting point of 162 to 163 °C. In addition, in data set [1], the activity at 0.01 µg/mL was found to be 75%, the activity at 0.03 µg/mL turned out to be 88%, the activity at 0.1 µg/mL worked out at 99% and the activity at 0.3 µg/mL was 95%. Besides, in data set [1], the activity at 1 µg/mL turned out to be 65%.
In turn, `CCCOc1ccc(F)c2c(=O)c(-c3ccc(N(C)C)cc3)c[nH]c12` [Example 61, 3-(4-Dimethylaminophenyl)-5-fluoro-8-propoxy-1H-quinolin-4-one] registered a melting point of 206 to 207 °C. In addition, in data set [1], the activity at 0.01 µg/mL stood at 70%, the activity at 0.03 µg/mL amounted to 65%, the activity at 0.1 µg/mL turned out to be 85% and the activity at 0.3 µg/mL came to 80%. Also, the activity at 1 µg/mL in data set [1] was found to be 86%.
`CCCOc1ccc(F)c2c(=O)c(-c3ccc(OC)cc3)cn(C)c12` [Example 91, 5-Fluoro-3-(4-methoxyphenyl)-1-methyl-8-propoxy-1H-quinolin-4-one] gave a melting point of 147 to 148 °C. In addition, in data set [1], the activity at 0.01 µg/mL turned out to be 65%, the activity at 0.03 µg/mL worked out at 69%, the activity at 0.1 µg/mL worked out at 81% and the activity at 0.3 µg/mL stood at 82%. Besides, in data set [1], the activity at 1 µg/mL was 83%.
Take `CCCOc1ccc(F)c2c(=O)c(-c3cccs3)c[nH]c12` [Example 59, 5-Fluoro-8-propoxy-3-thiophen-2-yl-1H-quinolin-4-one]: the melting point was 211 to 213 °C. In data set [1], the activity at 0.01 µg/mL came to 53%, the activity at 0.03 µg/mL worked out at 56%, the activity at 0.1 µg/mL came out at 67% and the activity at 0.3 µg/mL came out at 66%. In addition, the activity at 1 µg/mL in data set [1] turned out to be 54%.
Compound `CCCOc1ccc(F)c2c(=O)c(-c3ccc(OC)cc3)cn(CC)c12` [Example 92, 1-Ethyl-5-fluoro-3-(4-methoxyphenyl)-8-propoxy-1H-quinolin-4-one] returned a melting point of 123 to 125 °C. Also, in data set [1], the activity at 0.01 µg/mL is 63%, the activity at 0.03 µg/mL was found to be 75%, the activity at 0.1 µg/mL came to 77% and the activity at 0.3 µg/mL was 69%. For the same compound, the activity at 1 µg/mL in data set [1] turned out to be 55%.
`CCCOc1ccc(F)c2c(=O)c(-c3ccc(OC(F)(F)F)cc3)c(C)[nH]c12` [Example 70, 5-Fluoro-2-methyl-8-propoxy-3-(4-trifluoromethoxyphenyl)-1H-quinolin-4-one]: the melting point lay within 167 to 168 °C. Moreover, in data set [1], the activity at 0.01 µg/mL came to 56%, the activity at 0.03 µg/mL was 57%, the activity at 0.1 µg/mL worked out at 67% and the activity at 0.3 µg/mL is 71%. Moreover, in data set [1], the activity at 1 µg/mL was 63%.
Take `CCCN(C)c1ccc(F)c2c(=O)c(-c3ccc(OC)cc3)c[nH]c12` [Example 30, 5-Fluoro-3-(4-methoxyphenyl)-8-(N-methyl-N-propylamino)-1H-quinolin-4-one]: the melting point lay in the range of 145 to 146 °C. Moreover, in data set [1], the activity at 0.01 µg/mL worked out at 50%, the activity at 0.03 µg/mL was found to be 54%, the activity at 0.1 µg/mL came to 69% and the activity at 0.3 µg/mL was 64%. For the same compound, in data set [1], the activity at 1 µg/mL was 56%.
`CCCOc1cc(F)c(F)c2c(=O)c(-c3ccc(OC)cc3)c[nH]c12` [Example 21, 5,6-Difluoro-3-(4-methoxyphenyl)-8-propoxy-1H-quinolin-4-one] yielded a melting point of 198 to 200 °C. In addition, in data set [1], the activity at 0.01 µg/mL stood at 52%, the activity at 0.03 µg/mL was determined as 59%, the activity at 0.1 µg/mL amounted to 63% and the activity at 0.3 µg/mL is 74%. Besides, the activity at 1 µg/mL in data set [1] came to 57%.
Take `CCCOc1ccc(F)c2c(=O)c(-c3ccc(OC)cc3)c[nH]c12` [Example 6, 5-Fluoro-3-(4-methoxyphenyl)-8-propoxy-1H-quinolin-4-one]: the melting point was in the range of 196 to 197 °C. In data set [1], the activity at 0.01 µg/mL worked out at 59%, the activity at 0.03 µg/mL worked out at 71%, the activity at 0.1 µg/mL came out at 85% and the activity at 0.3 µg/mL turned out to be 88%. In addition, the activity at 1 µg/mL in data set [1] was 83%.
In the case of `COCCOc1ccc(F)c2c(=O)c(-c3ccc(OC)cc3)c[nH]c12` [Example 36, 5-Fluoro-8-(2 methoxyethoxy)-3-(4-methoxyphenyl)-1H-quinolin-4-one], the melting point is 142 to 144 °C. Further, in data set [1], the activity at 0.01 µg/mL came to 63%, the activity at 0.03 µg/mL turned out to be 65%, the activity at 0.1 µg/mL worked out at 74% and the activity at 0.3 µg/mL stood at 71%. Besides, in data set [1], the activity at 1 µg/mL is 91%.
For `COc1ccc(-c2c[nH]c3c(OCCCNC(C)=O)ccc(F)c3c2=O)cc1` [Example 26, N-{3-[5-Fluoro-3-(4-methoxyphenyl)-4-oxo-1,4-dihydroquinolin-8-yloxy]propyl}acetamide], the melting point lay within 229 to 231 °C.
`CCCOc1ccc(F)c2c(=O)c(-c3ccc(OC(F)(F)F)cc3)c(C(F)(F)F)[nH]c12` [Example 82, 5-Fluoro-8-propoxy-3-(4-trifluoromethoxyphenyl)-2-trifluoromethyl-1H-quinolin-4-one]: the melting point was 143 to 144 °C.
`COc1ccc(-c2c[nH]c3c(OC(C)C)ccc(F)c3c2=O)cc1` [Example 9, 5-Fluoro-8-isopropoxy-3-(4-methoxyphenyl)-1H-quinolin-4-one] showed a melting point of 193 to 194 °C.
Take `CCCOc1ccc(F)c2c(=O)c(-c3ccc(O)cc3)c[nH]c12` [Example 95, 5-Fluoro-3-(4-hydroxyphenyl)-8-propoxy-1H-quinolin-4-one]: the melting point was 271 to 272 °C.
Consider `CCCOc1ccc(F)c2c(=O)c(-c3ccc(C(=O)OC)cc3)c[nH]c12` [Example 55, Methyl 4-(5-fluoro-4-oxo-8-propoxy-1,4-dihydroquinolin-3-yl)benzoate], for which the melting point fell in the range of 201 to 202 °C.

Values taken from patent US20160304461A1, “QUINOLONE COMPOUND AND PHARMACEUTICAL COMPOSITION” (OTSUKA PHARMACEUTICAL CO., LTD., priority 2007, published 2016).
